# Test results: ChEMBL document CHEMBL4665682, “Fragment Linking Strategies for Structure-Based Drug Design” (J Med Chem, 2020)
# Columns and labels:
# Bcl-2-like protein 1 = Bcl-2-like protein 1 (Homo sapiens, UniProt Q07817)
# Description: Inhibition of FITC-labeled Bak BH3 peptide binding to His6-tagged GST-fused Bcl-xL (unknown origin) expressed in Escherichia coli BL21 preincubated for 10 mins followed by Bak BH3 peptide addition and measured after 30 mins by fluorescence polarization-based competitive binding assay
# [1] = target: Peptidyl-prolyl cis-trans isomerase B (Homo sapiens, UniProt P23284); assay: Inhibition of C-terminal His6-tagged CypB (unknown origin) expressed in Escherichia coli C41(DE3) using Suc-Ala-Ala-Cis-Pro-Phe-pNA as substrate by spectrophotometric analysis
# [2] = Inhibition of C-terminal His6-tagged human CypD K133I mutant expressed in Escherichia coli BL21(DE3) using Suc-Ala-Ala-Cis-Pro-Phe-pNA as substrate by spectrophotometric analysis
# [3] = target: Peptidyl-prolyl cis-trans isomerase A (Homo sapiens, UniProt P62937)
# [4] = Binding affinity to human E-selectin/IgG expressed in CHO-K1 cells by surface plasmon resonance
# [5] = Binding affinity to FKBP (unknown origin) by 15N-HSQC-NMR spectroscopy; parameters: species or system Homo sapiens
# [6] = target: T1, Glycylpeptide N-tetradecanoyltransferase 1 (Homo sapiens, UniProt P30419)
# T1 sequence (P30419 whole entry): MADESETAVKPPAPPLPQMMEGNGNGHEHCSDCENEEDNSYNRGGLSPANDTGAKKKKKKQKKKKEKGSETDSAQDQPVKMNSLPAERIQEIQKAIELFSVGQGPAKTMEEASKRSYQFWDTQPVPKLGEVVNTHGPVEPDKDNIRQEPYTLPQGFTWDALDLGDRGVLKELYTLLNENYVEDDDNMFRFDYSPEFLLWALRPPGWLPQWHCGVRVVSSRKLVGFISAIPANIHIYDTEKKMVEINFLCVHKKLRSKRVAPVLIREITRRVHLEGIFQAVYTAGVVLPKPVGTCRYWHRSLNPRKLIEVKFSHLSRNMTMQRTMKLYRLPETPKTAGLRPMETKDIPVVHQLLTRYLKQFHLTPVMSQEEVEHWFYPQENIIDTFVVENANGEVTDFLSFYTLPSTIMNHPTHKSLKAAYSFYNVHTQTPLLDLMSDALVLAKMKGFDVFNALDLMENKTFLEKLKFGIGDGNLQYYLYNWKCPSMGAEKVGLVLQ
# Description: Inhibition of human NMT1 by fluorescence method
# [7] = Inhibition of avidin (unknown origin)
# Heat shock protein HSP90 [8] = target: T2, Heat shock protein HSP90 (Homo sapiens, UniProt P07900+P08238); assay: Displacement of biotin-labelled geldanamycin from human HSP90 (D9 to E236 residues) incubated for 3 hrs by FRET assay; assay type: protein assay
# [9] = Binding affinity to 23S rRNA U1061A mutant (unknown origin) by mass spectrometry
# Heat shock protein HSP90 [10] = target: T2, Heat shock protein HSP90; assay: Inhibition of human HSP90 (D9 to E236 residues) by fluorescence spectroscopy; assay type: protein assay
# Chitinase B = target: T3, Chitinase B (Serratia marcescens, UniProt P11797); assay: Inhibition of Serratia marcescens chitinase B
# T3 sequence (P11797 whole entry): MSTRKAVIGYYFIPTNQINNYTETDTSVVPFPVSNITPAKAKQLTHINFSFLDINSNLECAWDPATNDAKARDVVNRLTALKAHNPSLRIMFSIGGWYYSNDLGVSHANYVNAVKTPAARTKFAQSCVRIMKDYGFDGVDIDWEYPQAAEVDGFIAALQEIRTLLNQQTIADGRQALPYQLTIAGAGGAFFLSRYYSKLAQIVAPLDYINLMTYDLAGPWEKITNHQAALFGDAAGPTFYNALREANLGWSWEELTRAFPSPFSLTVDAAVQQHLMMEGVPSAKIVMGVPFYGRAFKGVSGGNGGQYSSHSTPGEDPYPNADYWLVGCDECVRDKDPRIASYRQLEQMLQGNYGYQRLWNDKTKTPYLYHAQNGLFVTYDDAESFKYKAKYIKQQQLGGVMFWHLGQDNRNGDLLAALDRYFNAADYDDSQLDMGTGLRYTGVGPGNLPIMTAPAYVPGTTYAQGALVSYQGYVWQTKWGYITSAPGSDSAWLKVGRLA
# [11] = Inhibition of Mycobacterium tuberculosis EthR assessed as reduction in protein interaction with immobilized ethA promoter DNA by SPR assay
# Histone deacetylase 8 = target: T4, Histone deacetylase 8 (Homo sapiens, UniProt Q9BY41); assay: Inhibition of HDAC8 (unknown origin) using acetylated lysine as substrate incubated for 20 mins by Lineweaver-Burk double-reciprocal plot analysis
# T4 sequence (Q9BY41 whole entry): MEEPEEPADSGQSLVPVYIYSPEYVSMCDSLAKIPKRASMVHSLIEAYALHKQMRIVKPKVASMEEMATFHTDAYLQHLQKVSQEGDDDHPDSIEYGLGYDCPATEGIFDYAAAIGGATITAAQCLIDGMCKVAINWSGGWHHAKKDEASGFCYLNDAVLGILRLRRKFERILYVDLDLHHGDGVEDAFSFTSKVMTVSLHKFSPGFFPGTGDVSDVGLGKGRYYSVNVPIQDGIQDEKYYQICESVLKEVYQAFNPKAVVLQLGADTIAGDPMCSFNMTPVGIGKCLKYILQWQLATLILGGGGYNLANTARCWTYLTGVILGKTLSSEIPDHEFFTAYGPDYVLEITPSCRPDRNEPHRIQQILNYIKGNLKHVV
# CDK2/Cyclin A2 = CDK2/Cyclin A2 (Homo sapiens, UniProt P24941); assay: Inhibition of CDK2/Cyclin A (unknown origin) using histone H1 as substrate by scintillation counting method; assay type: protein-complex assay
# [12] = target: Proto-oncogene tyrosine-protein kinase Src (Homo sapiens, UniProt P12931); assay: Inhibition of c-Src (unknown origin) using biotin-KVEKIGEGTYGVVYK as substrate by ELISA
# [13] = Inhibition of human lung tryptase using Tosyl-Gly-Pro-Arg-p-nitroanilide as substrate preincubated for 5 mins followed by substrate addition and measured after 15 mins
# [14] = Binding affinity to His6-tagged Mycobacterium tuberculosis pantothenate synthetase expressed in Escherichia coli C41(DE3) measured over 30 mins by isothermal titration calorimetry
# Heat shock protein HSP90 [15] = target: T2, Heat shock protein HSP90; assay: Inhibition of HSP90 (unknown origin) by confocal fluorescence-based biochemical assay; assay type: protein assay
# [16] = Antagonist activity at IL-2/IL-2RA (unknown origin) assessed as reduction in IL-2/IL-2RA protein-protein interaction by scintillation proximity assay; parameters: species or system Homo sapiens
# Endothiapepsin = target: T5, Endothiapepsin (Cryphonectria parasitica, UniProt P11838); assay: Inhibition of Endothia parasitica endothiapepsin using Abz-Thr-Ile-Nle-p-nitro-Phe-Gln-Arg-NH2 as substrate by fluorescence method
# T5 sequence (P11838 whole entry): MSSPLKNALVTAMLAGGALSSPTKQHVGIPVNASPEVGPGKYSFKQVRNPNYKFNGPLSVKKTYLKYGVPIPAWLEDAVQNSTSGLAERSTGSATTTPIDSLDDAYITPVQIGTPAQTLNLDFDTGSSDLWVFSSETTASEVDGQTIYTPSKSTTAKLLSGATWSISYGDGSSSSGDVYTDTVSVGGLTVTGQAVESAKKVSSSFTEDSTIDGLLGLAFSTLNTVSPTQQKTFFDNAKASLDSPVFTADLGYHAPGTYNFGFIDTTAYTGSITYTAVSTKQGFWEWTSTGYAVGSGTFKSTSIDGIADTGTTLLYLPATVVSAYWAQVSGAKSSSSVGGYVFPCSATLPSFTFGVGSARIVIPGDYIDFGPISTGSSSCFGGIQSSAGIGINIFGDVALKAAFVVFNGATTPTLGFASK
# [17] = Binding affinity to FKBP (unknown origin) by fluorescence-based assay; parameters: species or system Homo sapiens
# Heat shock protein HSP90 [18] = target: T2, Heat shock protein HSP90
# Description: Binding affinity to N-terminal human HSP90 (D9 to E236 residues) expressed in Escherichia coli BL21(DE3) by 1H-13C HSQC-NMR spectroscopy
# Sequence of Bcl-2-like protein 1 (Q07817 whole entry): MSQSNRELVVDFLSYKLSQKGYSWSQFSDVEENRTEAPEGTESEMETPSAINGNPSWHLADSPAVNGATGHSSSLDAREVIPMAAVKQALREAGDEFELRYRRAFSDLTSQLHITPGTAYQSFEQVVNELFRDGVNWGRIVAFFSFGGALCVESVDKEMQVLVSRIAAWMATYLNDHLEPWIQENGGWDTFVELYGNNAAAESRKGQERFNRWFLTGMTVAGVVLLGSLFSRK
# Sequence of Peptidyl-prolyl cis-trans isomerase B (P23284 whole entry): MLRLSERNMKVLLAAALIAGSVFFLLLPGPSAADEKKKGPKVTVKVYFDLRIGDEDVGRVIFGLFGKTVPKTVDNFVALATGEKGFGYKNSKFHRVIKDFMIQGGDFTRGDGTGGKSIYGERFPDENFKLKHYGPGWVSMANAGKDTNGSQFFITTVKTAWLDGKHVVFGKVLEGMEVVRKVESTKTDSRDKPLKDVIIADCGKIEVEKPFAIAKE
# Sequence of Peptidyl-prolyl cis-trans isomerase A (P62937 whole entry): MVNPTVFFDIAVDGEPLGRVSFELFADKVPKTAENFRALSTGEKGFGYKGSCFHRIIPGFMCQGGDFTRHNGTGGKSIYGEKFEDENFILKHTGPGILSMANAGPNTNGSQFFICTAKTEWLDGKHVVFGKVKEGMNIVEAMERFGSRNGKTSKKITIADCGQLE
# Sequence of Proto-oncogene tyrosine-protein kinase Src (P12931 2-536 limits assumed): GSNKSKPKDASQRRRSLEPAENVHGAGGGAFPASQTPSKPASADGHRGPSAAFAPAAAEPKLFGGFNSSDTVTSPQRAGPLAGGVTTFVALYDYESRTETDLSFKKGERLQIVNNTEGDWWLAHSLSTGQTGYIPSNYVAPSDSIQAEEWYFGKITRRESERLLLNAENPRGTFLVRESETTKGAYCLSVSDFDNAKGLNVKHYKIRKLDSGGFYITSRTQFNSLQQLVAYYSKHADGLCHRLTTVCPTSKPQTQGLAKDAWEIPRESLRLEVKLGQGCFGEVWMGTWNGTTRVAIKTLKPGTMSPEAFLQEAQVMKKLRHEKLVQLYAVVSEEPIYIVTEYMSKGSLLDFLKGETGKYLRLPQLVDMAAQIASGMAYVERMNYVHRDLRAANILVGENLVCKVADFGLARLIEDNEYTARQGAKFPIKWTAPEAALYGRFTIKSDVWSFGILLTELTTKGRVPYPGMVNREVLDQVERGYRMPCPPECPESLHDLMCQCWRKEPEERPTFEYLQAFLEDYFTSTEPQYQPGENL
smiles,measurement,setting,value
CC1(C)CCN(c2ccc(C(=O)S)cc2)CC1,IC50,Bcl-2-like protein 1,> 100 µM
O=CN1CCCC1,IC50,[1],> 5000 µM
same,IC50,[2],> 5000 µM
same,IC50,[3],> 5000 µM
C[C@@H]1O[C@@H](O[C@H]2[C@@H](O[C@@H]3O[C@H](CO)[C@H](O)[C@H](O[C@@H](CC4CCCCC4)C(=O)O)[C@H]3OC(=O)c3ccccc3)C[C@H](C(=O)NCCCc3cn(CCCn4ccc5cc([N+](=O)[O-])ccc54)nn3)C[C@@H]2C)[C@@H](O)[C@H](O)[C@@H]1O,Kd,[4],0.03 µM
COC(=O)[C@@H]1CCCCN1C(=O)C(=O)c1cc(OC)c(OC)c(OC)c1,Kd,[5],2 µM
CCOC(=O)c1c(C)nc2ccccc2c1C,IC50,[6],> 100 µM
CCCCCC(=O)O [HEXANOATE],Ki,[7],260 µM
Cc1cc(CNS(=O)(=O)c2ccc(N/C=C3\CCOC3=O)cc2)nc(N)n1,Ki,Heat shock protein HSP90 [8],1.9 µM
NCC[C@@H](NC(=O)c1ccco1)C(=O)N1CCNCC1,Kd,[9],> 100 µM
C[C@@H]1NC(=O)N[C@@H]1CCCCCC(=O)O,Ki,[7],4.1e-07 µM
COC(=O)[C@H]1C[C@H](O[C@@H]2O[C@H](CO)[C@H](O)[C@H](O[C@@H](CC3CCCCC3)C(=O)O)[C@H]2OC(=O)c2ccccc2)[C@H](O[C@@H]2O[C@@H](C)[C@@H](O)[C@@H](O)[C@@H]2O)[C@@H](C)C1,Kd,[4],1.9 µM
Cc1cc(C#Cc2ccccc2N/C=C2\CCOC2=O)nc(N)n1,Ki,Heat shock protein HSP90 [10],4 µM
O=C(Nc1ccc(O)cc1)c1ccc(O)cc1,Kd,[5],100 µM
CNC(=O)NC(=N)NCCC[C@H](NC(=O)CN=[N+]=[N-])C(=O)N(Cc1ccccc1)Cc1ccccc1,IC50,Chitinase B,0.58 µM
O=C(CCc1ccccc1)N1CCCC1,IC50,[11],350 µM
[N-]=[N+]=NCC12CC3CC(CC(C3)C1)C2,IC50,Histone deacetylase 8,> 1000 µM
O=C1Nc2ccc(Cl)cc2C1=O,IC50,CDK2/Cyclin A2,> 1000 µM
C#CCO/N=C/c1ccnc2ccccc12,IC50,Chitinase B,> 100 µM
CC1(C)CCN(c2ccc(C(=O)NS(=O)(=O)c3ccc(NCCSc4ccccc4)c([N+](=O)[O-])c3)cc2)CC1,IC50,Bcl-2-like protein 1,0.0788 µM
NNc1ccc(S(N)(=O)=O)cc1,IC50,CDK2/Cyclin A2,> 1000 µM
O=C(NO)c1ccc(-c2cn(CC34CC5CC(CC(C5)C3)C4)nn2)s1,IC50,Histone deacetylase 8,4 µM
O=C(CCc1ccccc1)N1CC[C@@H](SS[C@@H]2CCN(C(=O)CCc3ccccc3)C2)C1,IC50,[11],0.97 µM
CCn1c2ccccc2c2cc(/C=N/OCCO/N=C/c3ccc(O)c(O)c3)ccc21,IC50,[12],0.064 µM
N=C(N)c1ccc(C(=O)NCc2ccc(OCCCCCOc3ccc(CNC(=O)c4ccc(C(=N)N)cc4)cc3)cc2)cc1,Ki,[13],< 1e-05 µM
O=C(O)c1cc2ccccc2o1,Kd,[14],1000 µM
COC(=O)c1c(C)n[nH]c1-c1ccco1,IC50,Heat shock protein HSP90 [15],1000 µM
CC(C)C[C@@H](NC(=N)N)C(=O)NCC(=O)N1CCC(c2cc(-c3ccc(OCc4ccc(C(=O)O)o4)c(Cl)c3Cl)nn2C)CC1,IC50,[16],0.06 µM
C[C@H]1CNC(=O)N1,Ki,[7],34 µM
[N-]=[N+]=NS(=O)(=O)c1ccc(NCCSc2ccccc2)c([N+](=O)[O-])c1,IC50,Bcl-2-like protein 1,> 100 µM
O=C(O)c1ccc2nc(O)c(O)nc2c1,Kd,[9],> 100 µM
CSc1ccccc1C1CCCN1C(=O)C(NC(=O)NCc1ccc(N)cc1)c1ccccc1 (stereo not drawn),IC50,[1],0.08 µM
same,IC50,[2],0.2 µM
same,IC50,[3],0.1 µM
CC(C)C[C@@H](N=C(N)N)C(=O)NCC(=O)N1CCC(c2cc(-c3cccc(Cl)c3Cl)nn2C)CC1,IC50,[16],3 µM
CCn1c2ccccc2c2cc(/C=N/OC)ccc21,IC50,[12],40 µM
C#Cc1ccc(C(=O)NO)s1,IC50,Histone deacetylase 8,1 µM
C#Cc1ccc(N2CCNCC2)cc1,IC50,Endothiapepsin,43 µM
NCC[C@@H](NC(=O)c1ccc(-c2cccc(NC(=O)c3ccc4nc(O)c(O)nc4c3)c2)o1)C(=O)N1CCNCC1,Kd,[9],6.5 µM
COc1ccc2c(ccn2CC(=O)O)c1,Kd,[14],500 µM
O=C(CCC1CCCC1)N1CCCC1,IC50,[11],280 µM
COc1cc(C(=O)C(=O)N2CCCC[C@H]2C(=O)OCCCc2ccc(C(=O)Nc3ccc(O)cc3)cc2O)cc(OC)c1OC,Kd,[17],0.049 µM
Cc1nn(C)c(C)c1CCOc1c(-c2ccc3c(c2)c(CN(C)C)nn3C)ccc(F)c1F,IC50,[6],< 0.001 µM
N=C(N)c1ccccc1 [BENZAMIDINE],Ki,[13],22 µM
NC(Cc1c[nH]c2ccccc12)C(=O)N/N=C/c1cccc(/C=N/NC(=O)C(N)Cc2c[nH]c3ccccc23)c1 (stereo not drawn),IC50,Endothiapepsin,0.054 µM
O=C(NO)c1ccc(-c2cnnn2CC23CC4CC(CC(C4)C2)C3)s1,IC50,Histone deacetylase 8,0.51 µM
CN(C)c1ncnc2nc[nH]c12 [DIMETHYLADENINE],IC50,Heat shock protein HSP90 [15],1500 µM
O=C1OCC/C1=C\Nc1ccccc1,Kd,Heat shock protein HSP90 [18],150 µM
